Assay results reported in patent US20200085831A1, “NASAL COMPOSITIONS STIMULATING CILIARY ACTIVITY” (Innotesto BVBA, priority 2013, published 2020).

Legend:
[1] = adult population, Nawrot et al. 2003, cited from earlier work
[2] = tested on: ciliated cells; assay: In vitro experiments with ciliated cells (ascorbic acid); assay type: cell-based; conditions: several in vitro experiments
Procedure: When ascorbic acid is added to the present disclosure composition, the pH of the final composition should be adapted to values between about 6-8 and preferably between about pH 7-7.5 by adding a small amount of sodium bicarbonate or other pH regulating agents.

| SMILES | daily intake not associated with adverse effects [1] [mg per day] | daily intake not associated with adverse effects, per bodyweight ([1]; equivalent of the mg per day level) | effect on the ciliary beat frequency [2] |
| --- | --- | --- | --- |
| Cn1c(=O)c2c(ncn2C)n(C)c1=O [Caffeine, 1,3,7-trimethylxanthine] | < 400 | about 6 mg/kg bodyweight | – |
| O=C1O[C@H]([C@@H](O)CO)C(O)=C1O [ascorbic acid] | – | – | increases the ciliary beat frequency |
